B1: subtilisin A: subtilisin A from Bacillus licheniformis (Sigma) (protein, listed as Bacillus licheniformis)
chain: MMRKKSFWLGMLTAFMLVFTMAFSDSASAAQPAKNVEKDYIVGFKSGVKTASVKKDIIKESGGKVDKQFRIINAAKAKLDKEALKEVKNDPDVAYVEEDHVAHALAQTVPYGIPLIKADKVQAQGFKGANVKVAVLDTGIQASHPDLNVVGGASFVAGEAYNTDGNGHGTHVAGTVAALDNTTGVLGVAPSVSLYAVKVLNSSGSGTYSGIVSGIEWATTNGMDVINMSLGGPSGSTAMKQAVDNAYARGVVVVAAAGNSGSSGNTNTIGYPAKYDSVIAVGAVDSNSNRASFSSVGAELEVMAPGAGVYSTYPTSTYATLNGTSMASPHVAGAAALILSKHPNLSASQVRNRLSSTATYLGSSFYYGKGLINVEAAAQ

Experiments:
[1] = tested on: G12 epitopes (QPQLPY) in mixed gliadins; assay: G12 ELISA, gluten epitope elimination in gliadin digests; type: biochemical; settings: gliadins 250 μg/ml, enzyme 57 μg/ml
Procedure: FIG. 8E and FIG. 8F show the assessment of the survival of epitopes in the gliadin-NattoK degradation mixture employing the R5 ELISA (FIG. 8E) or G12 ELISA (FIG. 8F) assays. Epitope abolishment in Mixed gliadins (250 μg/ml) were incubated with NattoK (57 μg/ml) for 0, 15, 30 and 120 min and then assayed by the R5 ELISA or G12 ELISA.
R5 and G12 ELISA assays—Gluten epitope elimination in the gliadin-Rmep and gliadin-subtilisin A digests was assessed using two sandwich ELISA assays employing the R5 monoclonal antibody (RIDASCREEN Gliadin, R-Biopharm, Darmstadt, Germany) or the G12 monoclonal antibody (AgraQuant® ELISA Gluten G12, Romer labs, Union, Mo.). To prevent high background values, the R5 plate wells were blocked with 1% skim milk in PBS prior to incubation with the samples. The assays were performed according to the manufacturers' instructions and as described (21, 24).
To further investigate this, the time courses of degradation of mixed gliadins and the highly immunogenic 33-mer α-gliadin peptide were determined. Furthermore, epitope elimination was monitored by two ELISA assays employing the R5 antibody recognizing QQPFP (SEQ ID NO: 40) and related pentapeptides (27, 28) and the G12 antibody recognizing QPQLPY (SEQ ID NO: 22) contained in the 33-mer peptide (29, 30). Data obtained with Rmep are shown in FIG. 5, and with subtilisin A in FIG. 6.

Z-PPF-pNA = assay: Hydrolysis of paranitroanilide-derivatized substrate Z-PPF-pNA; type: biochemical; settings: fifty-fold increased enzyme concentrations (data not shown)
Procedure: (§1) Hydrolysis of paranitroanilide-derivatized substrates—Paranitroanilide (pNA)-derivatized tripeptide substrates were chemically synthesized at >90% purity (21st Century Biochemicals, Marlborough, Mass.). The substrates obtained were Z-YPQ-pNA, Z-QQP-pNA, Z-LPY-pNA, Z-PFP-pNA, Z-PPF-pNA, where Z=benzyloxycarbonyl, Y=tyrosine, P=proline, Q=glutamine, L=leucine, and F=phenylalanine Suc-AAPF-pNA (SEQ ID NO: 4) was obtained from Sigma, where Suc=N-succinyl and A=alanine. The peptides were dissolved in 75-100% DMSO at 10 mM, and were used at a final concentration of 200 μM in 50 mM TrisHCl pH 8.0. Purified Rothia enzyme or subtilisin A from Bacillus licheniformis (Sigma) were tested at final concentrations of 1 μg/ml. Some experiments were conducted in the presence of inhibitors 4-(2-Aminoethyl) benzenesulfonyl fluoride (AEBSF), Aprotinin, E-64, EDTA, phenylmethanesulfonyl fluoride (PMSF) and Eglin C, which were tested at final concentrations of 10 mM, 0.08 mM, 0.1 mM, 1.5 mM, 1 mM, and 0.06-1.2 μM, respectively. Enzymes were preincubated with the inhibitors for 20 min before adding Suc-AAPF-pNA (SEQ ID NO: 4). Substrate hydrolysis was monitored for 10 h at 405 nm using a Genios microtiter plate reader (Tecan, Männedorf, Switzerland) in the kinetic mode at 37° C.

mixed gliadins = assay: Degradation of mixed gliadins (SDS-PAGE); type: biochemical, wheat; settings: gliadins 250 μg/ml, enzyme 57 μg/ml
Procedure: FIG. 5A is a representative SDS-PAGE gel of non-digested gliadins (control) and Rmep-treated gliadins. Gliadins (250 μg/ml) in 50 mM Tris/HCl pH 8.0 were incubated with Rmep at 57 μg/ml. After 0, 15 min, 30 min and 2 h incubation 100 μl aliquots were removed, boiled and analyzed by SDS-PAGE and stained with COOMASSIE Brilliant Blue. The bold arrow (left) points to the position of the major band in the gliadin preparation; the thin arrow (right) to the 125 kDa band in the Rmep preparation, and the dotted arrows (right) to the gliadin degradation fragments.
FIG. 6A is a representative SDS-PAGE gel of non-digested gliadins (control) and subtilisin A-treated gliadins. Gliadins (250 μg/ml) in 50 mM Tris/HCl pH 8.0 were incubated with subtilisin A at 57 μg/ml. Experiments were conducted as described in the legend of FIG. 5 with subtilisin A instead of Rmep.
FIG. 8A is a representative SDS-PAGE gel of non-digested gliadins (control) and NattoK-treated gliadins. Mixed gliadins (G, 250 μg/ml) were incubated with NattoK (57 μg/ml) for 0, 15, 30 and 120 min. Left four lanes: controls without enzyme or gliadins, respectively, each at t=0 and 120 min. Arrow points to the major components in the gliadin mixture represented by α and γ-gliadins containing most of the immunogenic epitopes.
Degradation of mixed gliadins and the 33-mer peptide—Mixed gliadins were obtained from Sigma. A synthetic highly immunogenic α-gliadin derived 33-mer peptide (26) was synthesized at a purity of >90% (21st Century Biochemicals). Mixed gliadins or the 33-mer peptide (each at final concentration 250 μg/ml) were incubated with Rmep or subtilisin A (each at 57 μg/ml) in 50 mM TrisHCl, pH 8.0. After t=0, 15 min, 30 min, and 2 h, 100 μl sample aliquots were removed and boiled. Gliadin degradation was assessed by 4-12% SDS-PAGE followed by Coomassie staining, and 33-mer degradation was determined by RP-HPLC.

FRET substrate PQPQPQ = assay: FRET substrate hydrolysis, PQPQPQ; type: biochemical; settings: substrate 100 μM, Rmep 1 μg/ml, subtilisin A 0.5 μg/ml, pH 8.0
Procedure: FIG. 4D and FIG. 4E are representative graphs of the hydrolysis of gliadin-derived FRET substrates. FRET substrates containing QPQLPY (SEQ ID NO: 22), PQPQPQ (SEQ ID NO: 23) and QGSFQP (SEQ ID NO: 24), each at 100 μM, were incubated with Rmep […] and subtilisin A (FIG. 4E), at 1 μg/ml and 0.5 μg/ml, respectively. Controls were boiled Rmep and subtilisin A incubated with PQPQLPY (+) (SEQ ID NO: 25), PQPQPQ (⋄) (SEQ ID NO: 23) and QGSFQP (*) (SEQ ID NO: 24) (no activity, baseline).
FRET substrate hydrolysis—Three fluorescence resonance energy transfer (FRET) substrates comprising the hexapeptides QPQLPY (SEQ ID NO: 22), PQPQPQ (SEQ ID NO: 23) and QGSFQP (SEQ ID NO: 24) were synthesized with at the N-terminus the HILYTE FLUOR™ 488 label, and at the C-terminus with K(QXL520) (Anaspec, Fremont, Calif.). Rmep (1 μg/ml) and subtilisin A (0.5 μg/ml) were incubated with the substrates (100 μM) in 50 mM TrisHCl pH 8.0. Samples were incubated at 37° C. and fluorescence increase, indicating hydrolysis, was measured every 5 min for 30 min, and every 10 min for the next 30 min, at λex 485 nm and λem 520 nm, using a Genios microtiter plate reader in the kinetic mode.

Z-PFP-pNA = assay: Hydrolysis of paranitroanilide-derivatized substrate Z-PFP-pNA; type: biochemical; settings: substrate 200 μM, pH 8.0 (data not shown)
Procedure: as §1

Row | Molecule | decrease of G12 antibody binding after 30 min ([1]; 30 min) | reduction of G12 antibody binding / G12 epitope degradation after 2 h [1] | hydrolysis of Z-PPF-pNA (Z-PPF-pNA) | incubation time within which mixed gliadins were degraded (mixed gliadins; 50 mM TrisHCl pH 8.0) | hydrolysis of FRET substrate PQPQPQ (FRET substrate PQPQPQ) | hydrolysis of Z-PFP-pNA (Z-PFP-pNA) | G12 epitope degradation at t=0 ([1]; t=0) | degradation of mixed gliadins in the t=0 sample (mixed gliadins; pH 8.0, t=0)
1 | Rmep: DEAE pooled fraction F2 of R. mucilaginosa ATCC 25296 extract with highest gluten-degrading enzyme activity; contains subtilisins C6R5V9_9MICC and C6R5W1_9MICC | 65% | 85% | not | ≤ 15 min | rapidly hydrolyzed | not hydrolyzed |  | 
2 | B1 |  | 45% | hydrolyzed |  | highest activity | not hydrolyzed | 22% | near complete degradation
